From ChEMBL document CHEMBL3044691, “The stability and degradation of a new biological pesticide, pyoluteorin” (Pest Manag Sci, 2010)

Legend:
Type in all cases: physicochemical
[1] = Half life in phosphate buffer at pH 7 at room temperature under sunlight
[2] = Half life under dark condition at room temperature
[3] = Half life in water solution at 54 degC under dark condition
[4] = Half life in phosphate buffer at pH 7.8 under dark condition
[5] = Half life in phosphate buffer at pH 7.4 under dark condition
[6] = Half life in phosphate buffer at pH 7.8 at room temperature under sunlight
[7] = Half life under fluorescent lamp light at room temperature
[8] = Half life in water solution at 626.5 mg/l initial concentration under dark condition
[9] = Half life in water solution at 248.5 mg/l initial concentration under dark condition
[10] = Half life in phosphate buffer at pH 6.6 under dark condition
[11] = Half life under high-pressure mercury lamp light at room temperature
[12] = Half life under incandescent lamp light at room temperature
[13] = Half life in water solution at 375 mg/l initial concentration under dark condition
[14] = Half life in phosphate buffer at pH 7 under dark condition
[15] = Half life in phosphate buffer at pH 7.4 at room temperature under sunlight
[16] = Half life in phosphate buffer at pH 6.2 at room temperature under sunlight
[17] = Half life in water solution at 121.5 mg/l initial concentration under dark condition
[18] = Half life in phosphate buffer at pH 5.8 at room temperature under sunlight
[19] = Half life under sunlight at room temperature
[20] = Half life in water solution at 502.5 mg/l initial concentration under dark condition
[21] = Half life in phosphate buffer at pH 5.8 under dark condition
[22] = Half life in phosphate buffer at pH 6.2 under dark condition
[23] = Half life in water solution at 28 degC under dark condition
[24] = Half life in water solution at 70 degC under dark condition
[25] = Half life in phosphate buffer at pH 6.6 at room temperature under sunlight
[26] = Half life in water solution at 37 degC under dark condition

O=C(c1cc(Cl)c(Cl)[nH]1)c1c(O)cccc1O [PYOLUTEORIN]
half-life [1]: 0.69 days | half-life [2]: 24.9 days | half-life [3]: 22 days | half-life [4]: 23.9 days | half-life [5]: 32.8 days | half-life [6]: 0.42 days | half-life [7]: 23.2 days | half-life at 626.5 mg/l [8]: 51.7 days | half-life at 248.5 mg/l [9]: 31.1 days | half-life [10]: 50.2 days | half-life [11]: 3.1 days | half-life [12]: 23.5 days | half-life at 375 mg/l [13]: 37.7 days | half-life [14]: 54.1 days | half-life [15]: 0.58 days | half-life [16]: 1.29 days | half-life at 121.5 mg/l [17]: 26.5 days | half-life [18]: 1.77 days | half-life [19]: 3.5 days | half-life at 502.5 mg/l [20]: 44.4 days | half-life [21]: 34.8 days | half-life [22]: 42 days | half-life [23]: 30 days | half-life [24]: 18.8 days | half-life [25]: 0.92 days | half-life [26]: 26.5 days
